Source: paper PMC7998669, “7-(2-Anilinopyrimidin-4-yl)-1-benzazepin-2-ones Designed by a “Cut and Glue” Strategy Are Dual Aurora A/VEGF-R Kinase Inhibitors” (Molecules, 2021)
Converted amounts (≈) assume the structure as drawn.

Experiments:
[1] = kinetic solubility by nephelometry; type: physicochemical; conditions: phosphate buffer, 25 °C, pH 7.4, aqueous buffer, kinetic from dmso stock, phosphate buffer pH 7.4, 1% DMSO, mean of two measurements, range in brackets
Procedure: The kinetic solubility of test compounds was determined by nephelometry. Dilution series of test compounds in DMSO with eight to ten different concentrations were prepared. The dilutions were pipetted (2 µL) into the cavities of a 96 well plate (CorningTM UV-transparent flat-bottom microtiter plate; Corning Incorporated, Kennebunk, ME, USA). A phosphate buffer solution pH 7.4 (198 µL) was added, so that the DMSO concentration in the measured solutions was 1%. Three wells were filled with DMSO and phosphate buffer pH 7.4 (2:198) and measured as blank values. The 96 well plate prepared in this way was measured with the NEPHELOstar® Plus nephelometer (BMG Labtech GmbH, Ortenberg, Germany, software: Omega 5.11) at a temperature of 25 °C. Previously, the plate was shaken at 500 rpm for 10 s and the laser intensity was set to 80%. The beam focus was set to 2.50 mm. If the test substance is completely soluble, only a scattering close to the blank value is detected. As soon as a critical concentration is reached in which the kinetic solubility of the test compound is exceeded, solid particles precipitate. Undissolved particles in the sample scatter the laser beam. The intensity of the scattered light is determined, which is proportional to the number of particles in the solution. The blank values were determined and subtracted from the measured values of the test compounds. By measuring different concentrations of the test substances, different intensities of the scattered light, indicated as RNU (relative nephelometric units), were determined. Kick off curves were obtained by plotting concentrations against the RNU values. The point of intersection of the horizontal and of the ascending part of the kick-off curve indicated the kinetic solubility concentration.

SK-OV-3 = experiment: NCI cancer cell line screen (sulforhodamin B); type: cell-based; conditions: Homo sapiens; SK-OV-3, Ovarian; 48 h; read-out: log10 GI50 (converted)
Procedure: (§1) The new dual Aurora A/VEGF-R inhibitors 2e and 2n were selected by the National Cancer Institute for screening in its broad cancer cell line panel. The NCI in vitro assay is performed by incubation of cells with test compounds for 48 h and subsequent cell fixation with trichloroacetic acid. The pink dye sulforhodamin B is added, which binds to the proteins of the fixed cells. After washing and solubilizing the bound stain, the optical density is measured spectrophotometrically to determine the relative proliferation of treated and untreated cells.
(§2) Simultaneous inhibition of the Aurora A kinase and the VEGF-R2/3 receptor kinases may represent an interesting dual activity for the treatment of cancer. The National Cancer Institute selected the compounds 2e and 2n as representatives with particularly high inhibitory activity on the above kinases for testing in the IVCLS (in vitro cell line screening). In this screening, compounds are tested for antiproliferative activity on about 60 in vitro cultivated tumor cell lines. Based on this very broad screening on cell lines from nine tumor entities the general antiproliferative potency of compounds is determined. In addition, the bioinformatic tool COMPARE allowed one to draw conclusions on the molecular target of the compounds from the activity patterns on the different cell lines. Similar molecular mechanisms of action of two compounds are assumed if a Pearson correlation coefficient (PCC) of > 0.6 is calculated by COMPARE [52, 53]. […] The selectivity profile of the two compounds is not very pronounced given the overall very similar proliferation inhibition values across all cell lines. A COMPARE analysis determined a PCC = 0.61 for the patterns of test compounds 2e and 2n, which is consistent with an analogous mechanism of action. However, whether this mechanism is actually based on the inhibition of the inhibited Aurora kinases and VEGF receptor kinases cannot be deduced from these profiles.

LOX IMVI = experiment: NCI cancer cell line screen (sulforhodamin B); type: cell-based; conditions: Homo sapiens, Melanoma, 48 h, read-out: log10 GI50 (converted)
Procedure: as §1, §2

KM12 = experiment: NCI cancer cell line screen (sulforhodamin B); type: cell-based; conditions: Homo sapiens; KM12, Colon; 48 h; read-out: log10 GI50 (converted)
Procedure: as §1, §2

SK-MEL-2 = experiment: NCI cancer cell line screen (sulforhodamin B); type: cell-based; conditions: Homo sapiens; SK-MEL-2, Melanoma; 48 h; read-out: log10 GI50 (converted)
Procedure: as §1, §2

SN12C = experiment: NCI cancer cell line screen (sulforhodamin B); type: cell-based; conditions: Homo sapiens, Renal, 48 h, read-out: log10 GI50 (converted)
Procedure: as §1, §2

HCT-116 = experiment: NCI cancer cell line screen (sulforhodamin B); type: cell-based; conditions: Homo sapiens; HCT-116, Colon; 48 h; read-out: log10 GI50 (converted)
Procedure: as §1, §2

T-47D = experiment: NCI cancer cell line screen (sulforhodamin B); type: cell-based; conditions: Homo sapiens, T47D, Breast, 48 h, read-out: log10 GI50 (converted)
Procedure: as §1, §2

IGROV1 = experiment: NCI cancer cell line screen (sulforhodamin B); type: cell-based; conditions: Homo sapiens, IGROV-1; IGROV1, Ovarian; 48 h; read-out: log10 GI50 (converted)
Procedure: as §1, §2

SK-MEL-5 = experiment: NCI cancer cell line screen (sulforhodamin B); type: cell-based; conditions: Homo sapiens; SK-MEL-5, Melanoma; 48 h; read-out: log10 GI50 (converted)
Procedure: as §1, §2

NCI-H23 = experiment: NCI cancer cell line screen (sulforhodamin B); type: cell-based; conditions: Homo sapiens; NCI-H23, NSCL; 48 h; read-out: log10 GI50 (converted)
Procedure: as §1, §2

MDA-MB-231/ATCC = experiment: NCI cancer cell line screen (sulforhodamin B); type: cell-based; conditions: Homo sapiens, Breast, 48 h, read-out: log10 GI50 (converted)
Procedure: as §1, §2

SF-268 = experiment: NCI cancer cell line screen (sulforhodamin B); type: cell-based; conditions: Homo sapiens; SF-268, CNS; 48 h; read-out: log10 GI50 (converted)
Procedure: as §1, §2

EKVX = experiment: NCI cancer cell line screen (sulforhodamin B); type: cell-based; conditions: Homo sapiens, NSCL, 48 h, read-out: log10 GI50 (converted)
Procedure: as §1, §2

CCRF-CEM = experiment: NCI cancer cell line screen (sulforhodamin B); type: cell-based; conditions: Homo sapiens, Leukemia, 48 h, read-out: log10 GI50 (converted)
Procedure: as §1, §2

ACHN = experiment: NCI cancer cell line screen (sulforhodamin B); type: cell-based; conditions: Homo sapiens, Renal, 48 h, read-out: log10 GI50 (converted)
Procedure: as §1, §2

TK-10 = experiment: NCI cancer cell line screen (sulforhodamin B); type: cell-based; conditions: Homo sapiens; TK-10, Renal; 48 h; read-out: log10 GI50 (converted)
Procedure: as §1, §2

SNB-75 = experiment: NCI cancer cell line screen (sulforhodamin B); type: cell-based; conditions: Homo sapiens; SNB-75, CNS; 48 h; read-out: log10 GI50 (converted)
Procedure: as §1, §2

BT-549 = experiment: NCI cancer cell line screen (sulforhodamin B); type: cell-based; conditions: Homo sapiens; BT-549, Breast; 48 h; read-out: log10 GI50 (converted)
Procedure: as §1, §2

CAKl-1 = experiment: NCI cancer cell line screen (sulforhodamin B); type: cell-based; conditions: Homo sapiens; CAKl-1, Renal; 48 h; read-out: log10 GI50 (converted)
Procedure: as §1, §2

SMILES | solubility kinetic at 10 s [1] | GI50 (SK-OV-3) | GI50 (LOX IMVI) | GI50 (KM12) | GI50 (SK-MEL-2) | GI50 (SN12C) | GI50 (HCT-116) | GI50 (T-47D) | GI50 (IGROV1) | GI50 (SK-MEL-5) | GI50 (NCI-H23) | GI50 (MDA-MB-231/ATCC) | GI50 (SF-268) | GI50 (EKVX) | GI50 (CCRF-CEM) | GI50 (ACHN) | GI50 (TK-10) | GI50 (SNB-75) | GI50 (BT-549) | GI50 (CAKl-1)
O=C1CCCc2cc(-c3ccnc(Nc4ccccc4)n3)ccc2N1 [Compound 2a, 7-(2-Anilinopyrimidin-4-yl)-1,3,4,5-tetrahydro-2H-1-benzazepin-2-one] | ~50 µM (≈ 16.5 µg/mL) | – | – | – | – | – | – | – | – | – | – | – | – | – | – | – | – | – | – | –
O=C1CCCc2cc(-c3ccnc(Nc4ccc(O)cc4)n3)ccc2N1 [Compound 2e, 7-[2-(4-Hydroxyanilino)pyrimidin-4-yl]-1,3,4,5-tetrahydro-2H-1-benzazepin-2-one] | – | 3.02 µM | 3.39 µM | 2.57 µM | 2.09 µM | 6.17 µM | 3.63 µM | 1.55 µM | 2.51 µM | 3.09 µM | > 100 µM | > 100 µM | 4.37 µM | 34.7 µM | 2.51 µM | 2.57 µM | 3.8 µM | 3.39 µM | 5.13 µM | 4.17 µM
COc1ccc(Nc2nccc(-c3ccc4c(c3)CCCC(=O)N4)n2)cc1O [Compound 2n, 7-[2-(3-Hydroxy-4-methoxyanilino)pyrimidin-4-yl]-1,3,4,5-tetrahydro-2H-1-benzazepin-2-one] | 92.6 µM (≈ 34.9 µg/mL) | 5.25 µM | 5.5 µM | 4.79 µM | 9.12 µM | 5.75 µM | 3.8 µM | 4.07 µM | 3.02 µM | 10 µM | 11.7 µM | > 100 µM | 7.41 µM | 43.7 µM | 3.89 µM | 4.17 µM | 23.4 µM | 2.19 µM | 5.62 µM | 5.62 µM
